# Test results: PubChem BioAssay (NCI)
# Where “and” joins values, the source holds several entries; their conditions need not be identical. Equal entries are not always repeated.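 All cell lines were grown in 96-well plates and treated with compound for 48 hours. GI50 is the concentration that inhibits growth by half. TGI denotes the concentration required for complete inhibition of growth.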
# Tests used:
# Experiment in all cases: NCI anticancer screen, dose series, 48 h
# DU-145 prostate = tested on: DU-145 prostate
# EKVX NSCLC = tested on: EKVX NSCLC
# HCT-15 colon = tested on: HCT-15 colon
# KM12 colon = tested on: KM12 colon
# MALME-3M melanoma = tested on: MALME-3M melanoma
# MOLT-4 leukemia = tested on: MOLT-4 leukemia
# NCI-H522 lung = tested on: NCI-H522 lung
# OVCAR-3 ovarian = tested on: OVCAR-3 ovarian
# SK-OV-3 ovarian = tested on: SK-OV-3 ovarian
# SN12C renal = tested on: SN12C renal
SMILES,GI50 (DU-145 prostate),TGI (DU-145 prostate),GI50 (EKVX NSCLC),TGI (EKVX NSCLC),GI50 (HCT-15 colon),TGI (HCT-15 colon),GI50 (KM12 colon),TGI (KM12 colon),GI50 (MALME-3M melanoma),TGI (MALME-3M melanoma),GI50 (MOLT-4 leukemia),TGI (MOLT-4 leukemia),GI50 (NCI-H522 lung),TGI (NCI-H522 lung),GI50 (OVCAR-3 ovarian),TGI (OVCAR-3 ovarian),GI50 (SK-OV-3 ovarian),TGI (SK-OV-3 ovarian),GI50 (SN12C renal),TGI (SN12C renal)
O=C(NCC(=O)N1CC[C@H](NC2CCC(O)(c3ccc(-c4ncccn4)cn3)CC2)C1)c1cccc(C(F)(F)F)c1 (stereo not given in full),> 100 µM,> 100 µM,52.7 µM,> 100 µM,52.8 µM,> 100 µM,> 100 µM,> 100 µM,37.1 µM,> 100 µM,39.8 µM,> 100 µM,> 100 µM,> 100 µM,94.9 µM,> 100 µM,> 100 µM,> 100 µM,> 100 µM,> 100 µM
Cc1[nH]n(-c2ccc(S(=O)(=O)O)cc2)c(=O)c1N=Nc1ccccc1,–,> 100 µM,–,> 100 µM,–,> 100 µM,–,> 100 µM,–,> 100 µM,–,> 100 µM,–,> 100 µM,–,> 100 µM,–,> 100 µM,–,> 100 µM
COc1cc(OC)c2cc(C(=O)O)c(=O)oc2c1,> 100 µM,> 100 µM,> 100 µM,> 100 µM,> 100 µM,> 100 µM,> 100 µM,> 100 µM,> 100 µM,> 100 µM,> 100 µM,> 100 µM,> 71.5 µM,> 100 µM,> 100 µM,> 100 µM,> 100 µM,> 100 µM,> 100 µM,> 100 µM
COc1cc(C2CC(c3ccc(Nc4ccnc5cc(Cl)ccc45)cc3)=NN2C=O)cc(OC)c1OC (stereo not given),6.63 µM,> 100 µM,11.7 µM,> 100 µM,3.56 µM,> 100 µM,5.87 µM,> 100 µM,3.2 µM,8.32 µM,3.36 µM,9.21 µM,–,–,1.91 µM,3.4 µM,3.36 µM,10.9 µM,4.37 µM,42.4 µM
COc1cc2c(cc1OCCCCCn1c(-c3ccco3)nc3ccccc31)N=C[C@@H]1CCCN1C2=O,< 0.0152 µM,–,< 0.0115 µM,1.59 µM,0.0452 µM,26.4 µM,< 0.01 µM,–,< 0.01 µM,< 0.01 µM,< 0.01 µM,–,< 0.01 µM,–,< 0.01 µM,< 0.01 µM,< 0.01 µM,–,< 0.01 µM,11.3 µM
CC(C)=CCc1ccc(O)c(=O)cc1C(C)C,0.889 µM,> 100 µM,0.831 µM,> 100 µM,0.362 µM,> 100 µM,0.641 µM,> 100 µM,0.966 µM,9.39 µM,0.394 µM,> 100 µM,1.22 µM,69.9 µM,0.654 µM,> 83.4 µM,0.903 µM,> 100 µM,0.844 µM,> 100 µM
O=C1CSC(=S)N1Cc1cccnc1,2.4 µM,5.71 µM,–,–,2.87 µM,11.8 µM,2.22 µM,5.21 µM,6.71 µM,25.6 µM,11.6 µM,> 100 µM,2.22 µM,5.83 µM,3.39 µM,12.1 µM,35.8 µM,> 100 µM,14.5 µM,29.2 µM
COc1ccc2cc3[n+](cc2c1OC)CCc1cc2c(cc1-3)OCO2,–,> 100 µM,–,> 100 µM and 175 µM,> 100 µM and 216 µM,> 325 µM,2.79 µM and 4.27 µM,–,2.24 µM and 5.1 µM,27.8 µM [middle of 5 runs],–,–,–,–,–,–,38 µM,> 100 µM and 194 µM,–,> 100 µM and 75.2 µM and 81 µM
O=C(Nc1ccc(Cl)cc1)c1ccc([N+](=O)[O-])o1,3.95 µM,11.4 µM,3.02 µM,12.5 µM,1.48 µM,3.43 µM,2.35 µM,6.38 µM,2.25 µM,5.21 µM,7.19 µM,> 100 µM,0.642 µM,1.76 µM,2.92 µM,9.4 µM,2.64 µM,7.27 µM,1.68 µM,4.12 µM
COc1cc(C(=O)N2CCN(c3ccccc3OC)CC2)c(N)cc1OCc1ccccc1,42 µM,> 100 µM,35.7 µM,> 100 µM,34.9 µM,> 100 µM,32.9 µM,90.6 µM,22.3 µM,55.6 µM,21.5 µM,53.6 µM,25.9 µM,80.6 µM,22.1 µM,58.8 µM,49.9 µM,> 100 µM,30.5 µM,> 100 µM
CN(C)c1ccc(/C=C/c2ccnc3ccccc23)cc1N,–,30.2 µM,–,22.4 µM,–,22.8 µM,–,65.4 µM,–,28.8 µM,–,25.5 µM,–,–,–,10.2 µM,–,31.7 µM,–,34.4 µM
Nc1nc(Cl)c(N=Nc2ccc(Cl)cc2)c(NCC2(CO)CC(OCc3ccccc3)C2)n1 (stereo not given),6.16 µM and 14.6 µM and 4.62 µM,92.2 µM and > 100 µM and 26.5 µM,2.37 µM and 11 µM and 3.08 µM,–,–,> 100 µM and 20.1 µM,20 µM and 41.3 µM and 7.74 µM,> 100 µM and 28 µM,17.9 µM and 10.1 µM,33.3 µM,3.39 µM and 9.61 µM and 3.56 µM,38.6 µM and > 100 µM and > 48.4 µM,2.09 µM,4.26 µM,5.88 µM and 19.2 µM and 6.07 µM,45 µM and > 100 µM and 21.5 µM,–,69.9 µM and > 100 µM and 30 µM,–,16.9 µM and > 100 µM and 22 µM
O=C1c2cccc3cccc(c23)C(=O)N1CCCCN1CCN(CCCCOc2ccc(-c3nc4ccc(N5CCOCC5)cc4[nH]3)cc2)CC1,> 100 µM,> 100 µM,> 100 µM,> 100 µM,56.2 µM,> 100 µM,> 100 µM,> 100 µM,29.5 µM,> 100 µM,3.76 µM,> 100 µM,> 100 µM,> 100 µM,12.1 µM,> 100 µM,> 100 µM,> 100 µM,–,–
CC(=O)c1c(O)ccc2c(C)c(C(=O)O)oc12,> 100 µM,> 100 µM,> 100 µM,> 100 µM,> 100 µM,> 100 µM,> 100 µM,> 100 µM,> 100 µM,> 100 µM,> 100 µM,> 100 µM,> 100 µM,> 100 µM,> 100 µM,> 100 µM,–,–,–,–
COc1ccc(Cn2cnc3cc(C(=O)Nc4cccc5ccccc45)ccc32)c(OC)c1,0.0439 µM,3.36 µM,0.0654 µM,> 100 µM,0.0443 µM,> 51.1 µM,0.0391 µM,8.06 µM,0.0614 µM,> 100 µM,0.0621 µM,> 100 µM,0.039 µM,–,0.0267 µM,0.0776 µM,0.106 µM,> 100 µM,0.0691 µM,> 100 µM
COc1cc(-n2cc(-c3ccc(F)cc3)[nH]c2=S)cc(OC)c1OC,> 100 µM,> 100 µM,> 100 µM,> 100 µM,> 100 µM,> 100 µM,> 100 µM,> 100 µM,> 100 µM,> 100 µM,> 100 µM,> 100 µM,> 100 µM,> 100 µM,> 100 µM,> 100 µM,38.2 µM,> 100 µM,> 100 µM,> 100 µM
O=C1/C(=C/c2ccc(Cl)cc2)CN(Cc2cn(CCNc3ccnc4cc(Cl)ccc34)nn2)C/C1=C\c1ccc(Cl)cc1,0.426 µM,1.38 µM,–,–,0.308 µM,1.06 µM,0.22 µM,0.496 µM,1.53 µM,3.14 µM,0.499 µM,> 100 µM,0.52 µM,1.19 µM,0.311 µM,0.915 µM,1.03 µM,2.38 µM,1.08 µM,3.38 µM
CCOCC(=O)N[C@H]1CCc2cc(OC(=O)COCC)c(OC)c(OC)c2-c2ccc(SC)c(=O)cc21,0.0315 µM,–,32.1 µM,> 100 µM,–,2.85 µM,–,–,–,> 100 µM,0.034 µM,> 100 µM,0.0279 µM,0.0389 µM and 0.107 µM,–,0.0166 µM,0.0558 µM,–,0.0554 µM,> 100 µM
COC(=O)c1cc2c3ccccc3n3c(=O)c4cc5cc(OC)c(N(S(=O)(=O)c6ccc(C)cc6)S(=O)(=O)c6ccc(C)cc6)cc5nc4c(n1)c23,32 µM,> 100 µM,39.2 µM,> 100 µM,> 100 µM,> 100 µM,> 100 µM,> 100 µM,> 100 µM,> 100 µM,35.2 µM,> 100 µM,–,–,> 100 µM,> 100 µM,4.53 µM,81.3 µM,95.7 µM,> 100 µM
NC(N)=N/N=C(/c1ccccc1)c1ccc(Cl)cc1,4.89 µM,24.8 µM,–,–,5.8 µM,> 100 µM,5.53 µM,> 100 µM,53.3 µM,> 100 µM,5.45 µM,> 100 µM,12.5 µM,71.1 µM,2.88 µM,12.1 µM,39.7 µM,> 100 µM,27.4 µM,> 100 µM
c1ccc2c(-c3nc4ccccc4[nH]3)cccc2c1,3.04 µM,9.29 µM,–,–,1.82 µM,> 100 µM,2.26 µM,> 100 µM,3.81 µM,34.9 µM,2.9 µM,83.8 µM,2.19 µM,5.54 µM,2.17 µM,6.89 µM,4.04 µM,27.3 µM,5.03 µM,> 100 µM
CCCCCCCCCCCCCCCCOC(=O)c1c(C)[nH]c(/C=C2\N=C(c3ccc[nH]3)C=C2OC)c1C,0.406 µM,> 56.5 µM,–,–,2.21 µM,> 100 µM,0.102 µM,> 100 µM,3.67 µM,29.8 µM,> 100 µM,> 100 µM,5.69 µM,> 70.1 µM,1.67 µM,6.91 µM,2.35 µM,5.9 µM,1.64 µM,23.7 µM
COc1cc(C(=O)/C=C/c2c(-c3ccc(F)cc3)nc3ncccn23)cc(OC)c1OC,1.63 µM,6.11 µM,2.71 µM,> 100 µM,–,–,1.69 µM,4.37 µM,2.84 µM,58 µM,3.75 µM,> 100 µM,2.87 µM,10.6 µM,1.4 µM,3.64 µM,2.64 µM,6.7 µM,2.26 µM,36.1 µM
C=C(C)[C@@H]1CC[C@]2(C(=O)O)CC[C@]3(C)[C@H](CC[C@@H]4[C@@]5(C)C[C@@H](CC#Cc6ccc(Br)cc6)C(=O)C(C)(C)[C@@H]5CC[C@]43C)[C@@H]12,7.59 µM,> 100 µM,–,–,25.8 µM,> 100 µM,4.54 µM,> 100 µM,3.48 µM,14.1 µM,4.44 µM,> 100 µM,2.95 µM,75 µM,4.73 µM,> 100 µM,20.2 µM,> 100 µM,2.99 µM,9.25 µM
N#Cc1c(NC(=O)c2cccc3ccccc23)sc2c1CCCC2,0.0759 µM,2.86 µM,0.132 µM,> 25 µM,0.0775 µM,> 25 µM,0.105 µM,> 25 µM,0.0174 µM,> 25 µM,0.102 µM,> 25 µM,0.024 µM,0.259 µM,0.0417 µM,0.107 µM,–,–,0.157 µM,> 25 µM
COc1ccc2c(c1)C(=O)/C(=C/c1ccc([N+](=O)[O-])s1)O2,1.79 µM,> 100 µM,–,–,0.219 µM,0.697 µM,0.235 µM,0.51 µM,0.451 µM,1.76 µM,0.867 µM,> 33.7 µM,0.195 µM,0.395 µM,0.252 µM,0.548 µM,2.68 µM,7.77 µM,0.483 µM,2.32 µM
Cc1ccc(/C=C/C(=O)c2ccc(N)cc2)c(C)c1,10.8 µM,22.7 µM,19.5 µM,38.8 µM,–,–,4.38 µM,16.8 µM,1.87 µM,3.57 µM,1.28 µM,3.69 µM,0.379 µM,1.67 µM,–,–,16.5 µM,31.3 µM,1.95 µM,4.2 µM
